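How tested: cells in 96-well plates exposed to compound for 48 hours at five concentrations. The concentration for full growth arrest is given as TGI.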
Assays:
Experiment in all cases: inhibition of tumour cell growth, NCI panel, 48 h
MCF7 breast = system: MCF7 breast
LOX IMVI melanoma = system: LOX IMVI melanoma
COLO 205 colon = system: COLO 205 colon
786-0 renal = system: 786-0 renal
SF-295 CNS = system: SF-295 CNS
DU-145 prostate = system: DU-145 prostate
NCI-H226 lung = system: NCI-H226 lung
SK-MEL-2 melanoma = system: SK-MEL-2 melanoma
SR leukemia = system: SR leukemia
SF-539 CNS = system: SF-539 CNS
MDA-MB-231 breast = system: MDA-MB-231 breast
SK-OV-3 ovarian = system: SK-OV-3 ovarian
HL-60(TB) leukemia = system: HL-60(TB) leukemia
RXF 393 renal = system: RXF 393 renal
ACHN renal = system: ACHN renal
UO-31 renal = system: UO-31 renal
HS 578T breast = system: HS 578T breast
SW-620 colon = system: SW-620 colon
NCI-H522 lung = system: NCI-H522 lung
M14 melanoma = system: M14 melanoma
OVCAR-3 ovarian = system: OVCAR-3 ovarian
UACC-62 melanoma = system: UACC-62 melanoma
OVCAR-8 ovarian = system: OVCAR-8 ovarian
IGROV1 ovarian = system: IGROV1 ovarian
MDA-N = system: MDA-N
HT29 colon = system: HT29 colon
MALME-3M melanoma = system: MALME-3M melanoma
RPMI-8226 leukemia = system: RPMI-8226 leukemia
TK-10 renal = system: TK-10 renal
OVCAR-4 ovarian = system: OVCAR-4 ovarian
KM12 colon = system: KM12 colon
NCI-H23 lung = system: NCI-H23 lung
EKVX NSCLC = system: EKVX NSCLC
HCT-15 colon = system: HCT-15 colon
HOP-62 NSCLC = system: HOP-62 NSCLC
SK-MEL-28 melanoma = system: SK-MEL-28 melanoma
UACC-257 melanoma = system: UACC-257 melanoma
T-47D breast = system: T-47D breast
CCRF-CEM leukemia = system: CCRF-CEM leukemia
NCI/ADR-RES ovarian = system: NCI/ADR-RES ovarian
MDA-MB-435 = system: MDA-MB-435
K-562 leukemia = system: K-562 leukemia
A498 renal = system: A498 renal
MOLT-4 leukemia = system: MOLT-4 leukemia
A549 NSCLC = system: A549 NSCLC
SN12C renal = system: SN12C renal
HCT-116 colon = system: HCT-116 colon
SNB-19 CNS = system: SNB-19 CNS
OVCAR-5 ovarian = system: OVCAR-5 ovarian
SNB-75 CNS = system: SNB-75 CNS
HCC-2998 colon = system: HCC-2998 colon
PC-3 prostate = system: PC-3 prostate
SF-268 CNS = system: SF-268 CNS
HOP-92 NSCLC = system: HOP-92 NSCLC
CAKI-1 renal = system: CAKI-1 renal
SK-MEL-5 melanoma = system: SK-MEL-5 melanoma
NCI-H460 lung = system: NCI-H460 lung
U251 CNS = system: U251 CNS
BT-549 breast = system: BT-549 breast

## CN(C)c1ccc(/C=c2/c3ccccc3n3c2c2c([n+]3C)CCCC2)cc1
MCF7 breast
  TGI: 321 nM
LOX IMVI melanoma
  TGI: 1390 nM
COLO 205 colon
  TGI: 168 nM
786-0 renal
  TGI: 3240 nM
SF-295 CNS
  TGI: 653 nM
DU-145 prostate
  TGI: 2390 nM
NCI-H226 lung
  TGI: 2430 nM
SK-MEL-2 melanoma
  TGI: 590 nM
SR leukemia
  TGI: 1060 nM
SF-539 CNS
  TGI: 1420 nM
MDA-MB-231 breast
  TGI: 2790 nM
SK-OV-3 ovarian
  TGI: 2070 nM
HL-60(TB) leukemia
  TGI: 363 nM
RXF 393 renal
  TGI: 616 nM
ACHN renal
  TGI: 1990 nM
UO-31 renal
  TGI: 6500 nM
HS 578T breast
  TGI: 7210 nM
SW-620 colon
  TGI: 10500 nM
NCI-H522 lung
  TGI: 687 nM
M14 melanoma
  TGI: 1500 nM
OVCAR-3 ovarian
  TGI: 1170 nM
UACC-62 melanoma
  TGI: 1950 nM
OVCAR-8 ovarian
  TGI: 2490 nM
IGROV1 ovarian
  TGI: 1820 nM
MDA-N
  TGI: 1270 nM
HT29 colon
  TGI: 1610 nM
MALME-3M melanoma
  TGI: 866 nM
RPMI-8226 leukemia
  TGI: 656 nM
TK-10 renal
  TGI: 1550 nM
OVCAR-4 ovarian
  TGI: 4580 nM
KM12 colon
  TGI: 539 nM
NCI-H23 lung
  TGI: 6490 nM
EKVX NSCLC
  TGI: 353 nM
HCT-15 colon
  TGI: 5560 nM
HOP-62 NSCLC
  TGI: 1580 nM
SK-MEL-28 melanoma
  TGI: 2060 nM
UACC-257 melanoma
  TGI: 2880 nM
T-47D breast
  TGI: 362 nM
CCRF-CEM leukemia
  TGI: 5170 nM
NCI/ADR-RES ovarian
  TGI: 43900 nM
MDA-MB-435
  TGI: 717 nM
K-562 leukemia
  TGI: 2850 nM
A498 renal
  TGI: 920 nM
MOLT-4 leukemia
  TGI: 1590 nM
A549 NSCLC
  TGI: 1960 nM
SN12C renal
  TGI: 1590 nM
HCT-116 colon
  TGI: 913 nM
SNB-19 CNS
  TGI: 6680 nM
OVCAR-5 ovarian
  TGI: 5860 nM
SNB-75 CNS
  TGI: 265 nM
HCC-2998 colon
  TGI: 375 nM
PC-3 prostate
  TGI: 2060 nM
SF-268 CNS
  TGI: 1600 nM
HOP-92 NSCLC
  TGI: 141 nM
CAKI-1 renal
  TGI: 4800 nM
SK-MEL-5 melanoma
  TGI: 217 nM
NCI-H460 lung
  TGI: 758 nM
U251 CNS
  TGI: 2300 nM
BT-549 breast
  TGI: 2190 nM

## O=c1oc2ccc3ccccc3c2cc1-c1nc2ccccc2s1
MCF7 breast
  TGI: > 24400 nM
LOX IMVI melanoma
  TGI: > 100000 nM
COLO 205 colon
  TGI: > 100000 nM
786-0 renal
  TGI: > 100000 nM
SF-295 CNS
  TGI: > 100000 nM
DU-145 prostate
  TGI: > 100000 nM
NCI-H226 lung
  TGI: > 100000 nM
SK-MEL-2 melanoma
  TGI: > 100000 nM
SR leukemia
  TGI: > 21500 nM
SF-539 CNS
  TGI: > 100000 nM
MDA-MB-231 breast
  TGI: > 100000 nM
SK-OV-3 ovarian
  TGI: > 100000 nM
HL-60(TB) leukemia
  TGI: > 100000 nM
RXF 393 renal
  TGI: > 100000 nM
ACHN renal
  TGI: > 100000 nM
UO-31 renal
  TGI: > 100000 nM
HS 578T breast
  TGI: > 100000 nM
SW-620 colon
  TGI: > 100000 nM
NCI-H522 lung
  TGI: > 100000 nM
M14 melanoma
  TGI: > 100000 nM
OVCAR-3 ovarian
  TGI: > 100000 nM
UACC-62 melanoma
  TGI: > 100000 nM
OVCAR-8 ovarian
  TGI: > 100000 nM
IGROV1 ovarian
  TGI: > 100000 nM
MDA-N
  TGI: > 100000 nM
HT29 colon
  TGI: > 100000 nM
MALME-3M melanoma
  TGI: > 100000 nM
RPMI-8226 leukemia
  TGI: > 32800 nM
TK-10 renal
  TGI: > 100000 nM
OVCAR-4 ovarian
  TGI: > 100000 nM
KM12 colon
  TGI: > 100000 nM
NCI-H23 lung
  TGI: > 100000 nM
EKVX NSCLC
  TGI: > 100000 nM
HCT-15 colon
  TGI: > 100000 nM
HOP-62 NSCLC
  TGI: > 100000 nM
SK-MEL-28 melanoma
  TGI: > 100000 nM
UACC-257 melanoma
  TGI: > 100000 nM
T-47D breast
  TGI: > 100000 nM
CCRF-CEM leukemia
  TGI: > 100000 nM
NCI/ADR-RES ovarian
  TGI: > 100000 nM
MDA-MB-435
  TGI: > 100000 nM
K-562 leukemia
  TGI: > 77600 nM
A498 renal
  TGI: > 100000 nM
MOLT-4 leukemia
  TGI: > 21600 nM
A549 NSCLC
  TGI: > 100000 nM
SN12C renal
  TGI: > 100000 nM
HCT-116 colon
  TGI: > 100000 nM
SNB-19 CNS
  TGI: > 26900 nM
OVCAR-5 ovarian
  TGI: > 100000 nM
SNB-75 CNS
  TGI: > 100000 nM
HCC-2998 colon
  TGI: > 100000 nM
PC-3 prostate
  TGI: > 100000 nM
SF-268 CNS
  TGI: > 100000 nM
HOP-92 NSCLC
  TGI: > 100000 nM
CAKI-1 renal
  TGI: > 100000 nM
SK-MEL-5 melanoma
  TGI: > 100000 nM
NCI-H460 lung
  TGI: > 100000 nM
U251 CNS
  TGI: > 100000 nM
BT-549 breast
  TGI: > 100000 nM
